Test results reported in ChEMBL document CHEMBL1250451, “Mechanistic insights into a Ca2+-dependent family of alpha-mannosidases in a human gut symbiont” (Nat Chem Biol, 2010).
The source made the active and inactive calls. The calls are words filed in the database; no cut-off is given here.

What was measured:
Assay type in all cases: protein assay
[1] = target: T1, Alpha-1,2-mannosidase (BT_3527) (Bacteroides thetaiotaomicron) (UniProt Q8A1Y1); assay: Activity of Bacteroides thetaiotaomicron GH92 alpha-mannosidase GH92 alpha-mannosidase 3527 assessed as mannose release at 1 mM after 16 hrs by HPLC relative to untreated control after 16 hrs by HPLC
T1 sequence (whole entry): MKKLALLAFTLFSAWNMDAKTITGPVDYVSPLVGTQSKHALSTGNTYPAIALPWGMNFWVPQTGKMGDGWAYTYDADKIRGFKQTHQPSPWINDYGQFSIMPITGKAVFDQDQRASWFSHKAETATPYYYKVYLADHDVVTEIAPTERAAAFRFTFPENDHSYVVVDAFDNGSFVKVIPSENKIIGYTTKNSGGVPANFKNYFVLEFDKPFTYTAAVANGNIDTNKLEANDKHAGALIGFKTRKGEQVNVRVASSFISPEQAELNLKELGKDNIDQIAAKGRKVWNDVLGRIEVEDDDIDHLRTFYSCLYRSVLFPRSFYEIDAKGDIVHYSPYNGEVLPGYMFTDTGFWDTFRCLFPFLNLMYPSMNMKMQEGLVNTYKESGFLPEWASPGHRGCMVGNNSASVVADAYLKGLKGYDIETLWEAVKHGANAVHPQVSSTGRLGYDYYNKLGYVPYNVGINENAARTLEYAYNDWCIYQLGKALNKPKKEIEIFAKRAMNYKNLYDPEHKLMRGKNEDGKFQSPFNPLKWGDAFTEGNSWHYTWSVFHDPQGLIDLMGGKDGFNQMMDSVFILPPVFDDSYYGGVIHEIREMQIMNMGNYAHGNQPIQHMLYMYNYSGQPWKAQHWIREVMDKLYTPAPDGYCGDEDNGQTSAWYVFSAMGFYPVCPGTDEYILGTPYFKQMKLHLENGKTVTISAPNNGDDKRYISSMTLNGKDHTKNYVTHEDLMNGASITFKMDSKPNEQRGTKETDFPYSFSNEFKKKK

[2] = target: T2, Alpha-1,2-mannosidase (BT_3858) (Bacteroides thetaiotaomicron) (UniProt Q8A113); assay: Activity of Bacteroides thetaiotaomicron GH92 alpha-mannosidase GH92 alpha-mannosidase 3858 assessed as mannose release at 1 mM after 16 hrs by HPLC relative to untreated control after 16 hrs by HPLC
T2 sequence (whole entry): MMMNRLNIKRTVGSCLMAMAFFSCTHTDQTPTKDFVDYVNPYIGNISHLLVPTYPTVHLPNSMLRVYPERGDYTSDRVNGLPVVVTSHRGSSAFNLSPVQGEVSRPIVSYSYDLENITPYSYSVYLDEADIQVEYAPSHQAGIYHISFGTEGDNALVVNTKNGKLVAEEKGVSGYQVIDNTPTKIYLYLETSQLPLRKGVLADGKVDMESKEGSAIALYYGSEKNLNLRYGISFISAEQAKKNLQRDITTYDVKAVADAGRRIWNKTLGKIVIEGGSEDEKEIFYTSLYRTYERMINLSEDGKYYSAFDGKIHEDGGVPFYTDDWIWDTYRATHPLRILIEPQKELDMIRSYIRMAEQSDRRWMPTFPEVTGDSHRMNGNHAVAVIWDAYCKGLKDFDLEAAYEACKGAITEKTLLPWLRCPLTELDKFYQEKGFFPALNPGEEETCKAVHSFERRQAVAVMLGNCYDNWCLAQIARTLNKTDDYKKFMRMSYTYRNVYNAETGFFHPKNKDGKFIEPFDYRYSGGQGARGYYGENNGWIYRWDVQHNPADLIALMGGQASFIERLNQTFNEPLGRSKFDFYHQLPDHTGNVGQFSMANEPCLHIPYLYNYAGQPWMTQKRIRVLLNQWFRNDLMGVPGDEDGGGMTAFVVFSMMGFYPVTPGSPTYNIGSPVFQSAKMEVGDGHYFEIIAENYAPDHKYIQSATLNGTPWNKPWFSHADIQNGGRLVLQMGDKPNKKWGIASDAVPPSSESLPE

[3] = target: T3, Alpha-1,2-mannosidase (BT_3994) (Bacteroides thetaiotaomicron) (UniProt Q8A0M7); assay: Activity of Bacteroides thetaiotaomicron GH92 alpha-mannosidase GH92 alpha-mannosidase 3994 assessed as mannose release at 1 mM after 16 hrs by HPLC relative to untreated control after 16 hrs by HPLC
T3 sequence (whole entry): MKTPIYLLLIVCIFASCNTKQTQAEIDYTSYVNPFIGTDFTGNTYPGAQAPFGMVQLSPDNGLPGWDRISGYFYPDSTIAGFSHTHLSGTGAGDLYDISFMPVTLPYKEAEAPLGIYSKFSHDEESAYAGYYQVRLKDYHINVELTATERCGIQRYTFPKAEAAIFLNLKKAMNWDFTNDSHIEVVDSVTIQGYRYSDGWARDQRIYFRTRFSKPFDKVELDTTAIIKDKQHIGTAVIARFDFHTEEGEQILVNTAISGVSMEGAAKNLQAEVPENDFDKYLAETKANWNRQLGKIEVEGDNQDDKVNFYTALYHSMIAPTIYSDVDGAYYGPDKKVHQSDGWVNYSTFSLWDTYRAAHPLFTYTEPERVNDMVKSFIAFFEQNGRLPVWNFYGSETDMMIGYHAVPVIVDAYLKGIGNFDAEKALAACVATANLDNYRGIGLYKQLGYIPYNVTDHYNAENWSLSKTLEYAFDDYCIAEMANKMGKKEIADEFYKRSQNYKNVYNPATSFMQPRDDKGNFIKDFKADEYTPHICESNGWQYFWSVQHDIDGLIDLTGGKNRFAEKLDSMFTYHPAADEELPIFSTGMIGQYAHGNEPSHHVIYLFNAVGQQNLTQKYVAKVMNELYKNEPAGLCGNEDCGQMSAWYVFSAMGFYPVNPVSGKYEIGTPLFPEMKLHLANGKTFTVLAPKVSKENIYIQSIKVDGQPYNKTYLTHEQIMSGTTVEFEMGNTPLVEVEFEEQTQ

SMILES	Activity [1]	Activity [2]	Activity [3]
OC[C@H]1O[C@H](O[C@H]2[C@@H](O)[C@H](O)[C@@H](CO)O[C@@H]2O)[C@@H](O)[C@@H](O)[C@@H]1O	inactive	0.045%	inactive
OC[C@H]1O[C@H](OC[C@H]2O[C@H](O)[C@@H](O)[C@@H](O)[C@@H]2O)[C@@H](O)[C@@H](O)[C@@H]1O	inactive	0.0025%	inactive
OC[C@H]1O[C@H](O[C@@H]2[C@H](O)[C@@H](O)O[C@H](CO)[C@H]2O)[C@@H](O)[C@@H](O)[C@@H]1O	inactive	–	–
OC[C@H]1O[C@H](O[C@H]2[C@H](O)[C@H](O)[C@@H](O)O[C@@H]2CO)[C@@H](O)[C@@H](O)[C@@H]1O	inactive	0.1%	20%
